According to paper PMC5131319, “Occurrence, temporal trends, and half-lives of perfluoroalkyl acids (PFAAs) in occupational workers in China” (Scientific Reports, 2016):
Values joined by “and” are separate entries in the source; they are usually repeats but may differ in a detail not shown here. Equal values may be shown once. Read-outs that look alike come from different tables or passages of the source.

Experiments:
[1] = cited from earlier work
[2] = design: method as in PMID 23980546, PMID 12499116, PMID 20236705; conditions: set value; cited from earlier work
[3] = Half-life estimated by daily clearance rates (first-order model, k = Cltotal/Vd); assay type: in vivo, human; conditions: for half-life: human, serum and urine, other: occupational exposure
Description: Olsen et al.[21] found linear relationship between the logarithm of serum PFAAs concentration and time, and a first order model was adopted to estimate the half-lives of PFAAs. The elimination of PFAAs in humans was also described with the following equation: […]
If we set C(t) as 1/2C0, then the half-life
where k is the elimination rate constant. We calculated k using two approaches in the present study. In the first approach, k is defined as Cltotal/Vd, where Vd stands for the volume of distribution of PFAAs in the human body. Cltotal represents the total daily PFAAs clearance in the human body; for men and women older than 50, it refers to renal clearance, while for young women, it is defined as the sum of menstrual clearance and renal clearance. To keep consistency with other studies, Vd of PFOS and PFHxS were set at 230 mL kg^−1, and Vd of PFOA was set at 170 mL kg^−1 in this study. In the second approach, k is defined as the average annual decline rates of PFAAs in workers who participated in this study.
We used a first order model to estimate the half-lives of PFAAs in workers (Eq (2)). k was defined as […], where Cltotal referred to renal clearance for men and women older than 50 and to the sum of menstrual clearance and renal clearance for young women. According to Eq (2), the half-lives of PFHxS, PFOA, and PFOS for the occupational workers tested ranged from 0.51–3799 years, 0.44–3663 years, and 0.76–30475 years, with GM and median values of 14.7 and 11.7, 4.1 and 4.0, 32.6 and 21.6 years, respectively (Table 2). […] The GM values of the half-lives of PFHxS, PFOA, and PFOS for men here were 19.9, 4.7, and 60.9 years, respectively, while those for women were 7.5, 3.1, and 8.0 years, respectively. The half-lives estimated by the limited clearance route information could be considered as the upper limits for PFAAs. It seemed likely that the unrealistically long half-life estimates derived from the urinary data were actually evidence of the contribution of fecal elimination to the clearance of these chemicals. The extremely long half-lives of PFAAs, such as 3799 years for PFHxS, 3663 years for PFOA, and 30475 years for PFOS, were caused by the application of LOD/2 instead of ND in workers’ urine samples. The geometric mean or median value of the PFAAs half-lives can better reflect the actual situation.

[4] = Daily renal clearance rate (Clrenal) and serum-to-urine ratio from paired serum and urine; assay type: in vivo, human; conditions: for Ratio of serum-to-urine concentrations (S/U), GM: all samples; for Clrenal, GM / Clrenal, range: all workers; for Clrenal, range: minimum on the basis of LOD/2; for Renal clearance rate (PFOA): individual workers
Description: The positive correlations between the PFAAs in the serum and the paired urine samples were highly statistically significant, with correlation coefficients of 0.87, 0.64, and 0.72 for PFHxS, PFOA, and PFOS, respectively, (p < 0.01). […] Additionally, the relative abundances of PFOS, PFHxS, and PFOA between the serum and paired urine samples were quite different. The relative abundances in the serum are 64%, 24%, and 12%, respectively, while those in the urine were 19%, 31%, and 40%, respectively. […] Moreover, the ratio of serum-to-urine concentrations (S/U) might be an indicator for PFAA excretion in humans because PFAAs could concentrate in serum while urine excretion is considered an important PFAA elimination pathway. The GM values of S/U for PFHxS, PFOA, and PFOS in all samples were 697, 288, and 1782, respectively, indicating the difficulty in PFAA renal elimination from the workers. To exclude the potential effect of individual differences related to demographic information such as body weight and gender, the daily renal clearance rate (Clrenal) was introduced in the study. Clrenal is a parameter defined in Eq (3) that adjusts the S/U through body weight and the gender-specific daily urine excretion volume.
Paired samples with either concentration under the LOD were set as LOD/2 in the Clrenal study. The urine excretion volumes of males and females were set at 1.4 and 1.2 L/day in the study, respectively, and the body weight values of individual workers were obtained from our questionnaires. The calculated Clrenal values for PFHxS, PFOA, PFOS ranged from 2.0 × 10^−4 to 2.3, 9.0 × 10^−5 to 2.4, and 5.0 × 10^−5 to 0.54 mL day^−1 kg^−1 with GM values of 0.023, 0.067 and 0.010 mL day^−1 kg^−1, respectively (Fig. 3). The minimum values of the PFAAs Clrenal were calculated on the basis of LOD/2 instead of ND (not detected) in the present study. […] However, Zhang et al. observed that the Clrenal of PFHxS was the lowest among these 3 type of PFAAs[28]. The median Clrenal of PFAAs in the present study was similar to that of Zhou et al.’s study (0.012 mL day^−1 kg^−1 for PFHxS, 0.061 mL day^−1 kg^−1 for PFOA, and 0.010 mL day^−1 kg^−1 for PFOS)[39]. In contrast, as noted elsewhere, the Clrenal values of PFOA were the highest among those of the three PFAAs[28][38]. The most recent study on the elevated serum concentrations of PFAAs in fishery employees from Tangxun Lake also stated that the median Clrenal of PFOA (0.061 mL day^−1 kg^−1) was higher than those of the PFHxS and PFOS (0.012 and 0.010 mL day^−1 kg^−1)[39]. […] Moreover, the renal clearance rates of PFAAs in humans were not obviously influenced by the PFAAs level in the serum. […] In addition, gender could not be discounted. The Clrenal values of PFOS for the male workers were significant lower than those for the females (p < 0.01). Wong et al. studied the elimination rate constant of PFOS in a USA population and speculated that there might be other sex-specific elimination routes other than menstruation between men and women. No significant differences were found between the Clrenal values of PFOA and PFHxS for the males and females tested in the study.

[5] = Female workers, number 71, menstrual clearance added to renal clearance
[6] = Male workers, number 136, renal clearance
[7] = both sexes, Total workers, number 207, read-out: Half-life estimated through daily elimination, GM (converted)
[8] = both sexes, Total workers, number 207, read-out: Half-life estimated through daily elimination, Median (converted)
[9] = female, Female workers, number 71, menstrual clearance added to renal clearance, read-out: Half-life estimated through daily elimination, GM (converted)
[10] = male, Male workers, number 136, renal clearance, read-out: Half-life estimated through daily elimination, Median (converted)

| SMILES | Vd (volume of distribution in the human body) [2] | Half-life estimated through daily elimination, Max [3, 5] | Half-life estimated through daily elimination, Min [3, 5] | Half-life estimated through daily elimination, Min [3, 6] | Half-life estimated through daily elimination, Min ([3]; Total workers, number 207) | half-life [3, 7] | half-life [3, 8] | half-life [3, 9] | half-life [3, 10] | Ratio of serum-to-urine concentrations (S/U), GM [4] | Clrenal, GM [4] | Clrenal, range [4] | also measured |
| --- | --- | --- | --- | --- | --- | --- | --- | --- | --- | --- | --- | --- | --- |
| O=S(=O)(O)C(F)(F)C(F)(F)C(F)(F)C(F)(F)C(F)(F)C(F)(F)F [PFHxS, perfluorohexane sulfonate] | 0.23 L/kg | 15.1 years | 2.8 years | 0.51 years | 0.51 years | 5370 days | 4270 days | 2740 days | 5300 days | 697 | 0.023 mL/day/kg | 2.0 × 10^−4 to 2.3 mL day^−1 kg^−1 | Serum concentration, median ([1]; workers in another fluorochemical plant in China): 0.98 ng/mL; half-life ([3]; female, Female workers, number 71, menstrual clearance added to renal clearance, read-out: Half-life estimated through daily elimination, Median (converted)): 2780 days |
| O=C(O)C(F)(F)C(F)(F)C(F)(F)C(F)(F)C(F)(F)C(F)(F)C(F)(F)F [PFOA, perfluorooctanoic acid] | 0.17 L/kg | 11.1 years | 0.44 years | 0.48 years | 0.44 years | 1500 days | 1460 days | 1130 days | 1610 days | 288 | 0.067 mL/day/kg | 9.0 × 10^−5 to 2.4 mL day^−1 kg^−1 | Serum concentration, geometric mean ([1]; occupational workers of Wang et al.): 1272 ng/mL; Serum concentration, geometric mean ([1]; workers of the 3 M Company): 1130 ng/mL; Half-life estimated through daily elimination, Median [3, 5]: 2.8 years; half-life ([3]; male, Male workers, number 136, renal clearance, read-out: Half-life estimated through daily elimination, GM (converted)): 1720 days; Renal clearance rate (PFOA) ([4]; sampling year 2008): 0.093 mL/day/kg and 0.043 mL/day/kg and 0.141 mL/day/kg and 0.074 mL/day/kg and 0.069 mL/day/kg and 0.087 mL/day/kg and 0.012 mL/day/kg and 0.060 mL/day/kg and 0.127 mL/day/kg and 0.027 mL/day/kg and 0.068 mL/day/kg and 0.030 mL/day/kg and 0.111 mL/day/kg and 0.033 mL/day/kg and 0.047 mL/day/kg and 0.161 mL/day/kg and 0.052 mL/day/kg and 0.214 mL/day/kg and 0.096 mL/day/kg and 0.055 mL/day/kg and 0.042 mL/day/kg and 0.106 mL/day/kg and 0.021 mL/day/kg and 0.157 mL/day/kg and 0.058 mL/day/kg and 0.034 mL/day/kg; Renal clearance rate (PFOA) ([4]; sampling year 2009): 0.174 mL/day/kg and 0.318 mL/day/kg and 0.286 mL/day/kg and 0.110 mL/day/kg and 0.366 mL/day/kg and 0.046 mL/day/kg and 0.403 mL/day/kg and 0.070 mL/day/kg and 0.128 mL/day/kg and 0.090 mL/day/kg and 0.114 mL/day/kg and 0.071 mL/day/kg and 0.289 mL/day/kg and 0.235 mL/day/kg and 0.096 mL/day/kg and 0.264 mL/day/kg and 0.117 mL/day/kg and 0.057 mL/day/kg and 0.051 mL/day/kg and 0.262 mL/day/kg and 0.197 mL/day/kg and 0.077 mL/day/kg and 0.363 mL/day/kg; Renal clearance rate (PFOA) ([4]; sampling year 2011): 0.101 mL/day/kg and 0.205 mL/day/kg and 0.124 mL/day/kg and 0.077 mL/day/kg and 0.096 mL/day/kg and 0.081 mL/day/kg and 0.014 mL/day/kg and 0.080 mL/day/kg and 0.027 mL/day/kg and 0.082 mL/day/kg and 0.120 mL/day/kg and 0.066 mL/day/kg and 0.057 mL/day/kg and 0.037 mL/day/kg and 0.063 mL/day/kg and 0.270 mL/day/kg and 0.075 mL/day/kg and 0.060 mL/day/kg and 0.085 mL/day/kg and 0.181 mL/day/kg and 0.107 mL/day/kg and 0.258 mL/day/kg and 0.674 mL/day/kg and 0.290 mL/day/kg and 0.300 mL/day/kg and 0.058 mL/day/kg; Renal clearance rate (PFOA) ([4]; sampling year 2012): 0.089 mL/day/kg and 0.052 mL/day/kg and 0.038 mL/day/kg and 0.045 mL/day/kg and 0.082 mL/day/kg and 0.114 mL/day/kg and 0.012 mL/day/kg and 0.044 mL/day/kg and 0.098 mL/day/kg and 0.049 mL/day/kg and 0.030 mL/day/kg and 0.027 mL/day/kg and 0.029 mL/day/kg and 0.054 mL/day/kg and 0.033 mL/day/kg and 0.199 mL/day/kg and 0.105 mL/day/kg and 0.069 mL/day/kg and 0.236 mL/day/kg and 0.139 mL/day/kg and 0.040 mL/day/kg and 0.084 mL/day/kg and 0.170 mL/day/kg |
